This is an account of results in ChEMBL document CHEMBL1153515 (Bioorg Med Chem, 2009).

Holding throughout (type): functional
Assay [1] deals with 5-hydroxytryptamine receptor 3A (Mus musculus, UniProt P23979, L183V). Put plainly: Agonist activity at mouse 5HT3A L184V receptor mutant expressed in Xenopus oocyte by two-electrode voltage patch method. For orientation: Two-electrode voltage clamp is typically applied to oocytes expressing channels or transporters.
Assay [2] has as its target 5-hydroxytryptamine receptor 3A (Mus musculus, UniProt P23979, I186A). Briefly: Agonist activity at mouse 5HT3A I187A receptor mutant expressed in Xenopus oocyte by two-electrode voltage patch method.
Assay [3] deals with 5-hydroxytryptamine receptor 3A (Mus musculus, UniProt P23979, T185A). Put plainly: Agonist activity at mouse 5HT3A T186A receptor mutant expressed in Xenopus oocyte by two-electrode voltage patch method.
5-hydroxytryptamine receptor 3A (Mus musculus, UniProt P23979, T185A), sequence (P23979 24-489 T186A limits assumed): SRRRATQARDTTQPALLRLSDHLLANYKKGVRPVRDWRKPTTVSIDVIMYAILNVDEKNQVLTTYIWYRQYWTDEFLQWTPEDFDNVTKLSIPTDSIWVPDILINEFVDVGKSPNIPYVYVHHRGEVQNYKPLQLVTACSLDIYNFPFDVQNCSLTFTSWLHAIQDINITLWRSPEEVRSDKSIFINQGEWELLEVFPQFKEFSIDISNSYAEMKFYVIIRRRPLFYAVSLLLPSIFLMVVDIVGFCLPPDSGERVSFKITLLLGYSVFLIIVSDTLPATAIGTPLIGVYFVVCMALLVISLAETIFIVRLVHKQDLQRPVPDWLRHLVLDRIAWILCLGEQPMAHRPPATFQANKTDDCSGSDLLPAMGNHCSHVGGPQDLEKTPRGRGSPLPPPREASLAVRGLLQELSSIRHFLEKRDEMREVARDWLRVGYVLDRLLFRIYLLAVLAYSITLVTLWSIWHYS
Assay [4] addresses 5-hydroxytryptamine receptor 3A (Mus musculus, UniProt P23979, H184Y). Put plainly: Agonist activity at mouse 5HT3A H185Y receptor mutant expressed in Xenopus oocyte by two-electrode voltage patch method.
The target of assay [5] is 5-hydroxytryptamine receptor 3A (Mus musculus, UniProt P23979, Q187A). Briefly: Agonist activity at mouse 5HT3A Q188A receptor mutant expressed in Xenopus oocyte by two-electrode voltage patch method.
5-hydroxytryptamine receptor 3A (Mus musculus, UniProt P23979, Q187A), sequence (P23979 24-489 Q188A limits assumed): as the sequence (P23979 24-489 T186A limits assumed) above, with A163T, Q165A counted along it
Assay [6] deals with 5-hydroxytryptamine receptor 3A (Mus musculus, UniProt P23979, S181A). Briefly: Agonist activity at mouse 5HT3A S182A receptor mutant expressed in Xenopus oocyte by two-electrode voltage patch method.
5-hydroxytryptamine receptor 3A (Mus musculus, UniProt P23979, S181A), sequence (P23979 24-489 S182A limits assumed): as the sequence (P23979 24-489 T186A limits assumed) above, with S159A, A163T counted along it
In assay [7] the target is 5-hydroxytryptamine receptor 3A (Mus musculus, UniProt P23979, T180A). Briefly: Agonist activity at mouse 5HT3A T181A receptor mutant expressed in Xenopus oocyte by two-electrode voltage patch method.
5-hydroxytryptamine receptor 3A (Mus musculus, UniProt P23979, T180A), sequence (P23979 24-489 T181A limits assumed): as the sequence (P23979 24-489 T186A limits assumed) above, with T158A, A163T counted along it
Assay [8] concerns the target 5-hydroxytryptamine receptor 3A (Mus musculus, UniProt P23979, I189V). Put plainly: Agonist activity at mouse 5HT3A I190V receptor mutant expressed in Xenopus oocyte by two-electrode voltage patch method.
In assay [9] the target is 5-hydroxytryptamine receptor 3A (Mus musculus, UniProt P23979, Y142F). Briefly: Agonist activity at mouse 5HT3A Y143F receptor mutant expressed in Xenopus oocyte by two-electrode voltage patch method.
5-hydroxytryptamine receptor 3A (Mus musculus, UniProt P23979, Y142F), sequence (P23979 24-489 Y143F limits assumed): as the sequence (P23979 24-489 T186A limits assumed) above, with Y120F, A163T counted along it
For assay [10], the target named is T1, 5-hydroxytryptamine receptor 3A (Mus musculus, UniProt P23979).
T1 sequence (P23979 whole entry): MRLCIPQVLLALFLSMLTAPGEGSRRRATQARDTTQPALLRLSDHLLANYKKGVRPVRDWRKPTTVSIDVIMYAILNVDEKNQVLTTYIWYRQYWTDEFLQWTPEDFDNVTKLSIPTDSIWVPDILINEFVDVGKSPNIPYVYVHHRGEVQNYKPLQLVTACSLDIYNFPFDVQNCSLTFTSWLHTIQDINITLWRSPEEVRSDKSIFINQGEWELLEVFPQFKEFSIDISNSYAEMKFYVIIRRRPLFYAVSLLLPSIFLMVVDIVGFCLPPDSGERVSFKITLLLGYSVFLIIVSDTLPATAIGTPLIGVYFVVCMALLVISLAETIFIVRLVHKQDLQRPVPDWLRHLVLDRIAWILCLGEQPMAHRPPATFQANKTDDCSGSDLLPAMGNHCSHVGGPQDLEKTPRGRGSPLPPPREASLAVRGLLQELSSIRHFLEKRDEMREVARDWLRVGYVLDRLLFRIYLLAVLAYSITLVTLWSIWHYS
Put plainly: Agonist activity at wild type mouse 5HT3A receptor expressed in Xenopus oocyte by two-electrode voltage patch clamp method.

Assay [11] addresses 5-hydroxytryptamine receptor 3A (Mus musculus, UniProt P23979, H184F). Briefly: Agonist activity at mouse 5HT3A H185F receptor mutant expressed in Xenopus oocyte by two-electrode voltage patch method.
For assay [12], the target named is 5-hydroxytryptamine receptor 3A (Mus musculus, UniProt P23979, Y152A). Briefly: Agonist activity at mouse 5HT3A Y153A receptor mutant expressed in Xenopus oocyte by two-electrode voltage patch method.
5-hydroxytryptamine receptor 3A (Mus musculus, UniProt P23979, Y152A), sequence (P23979 24-489 Y153A limits assumed): as the sequence (P23979 24-489 T186A limits assumed) above, with Y130A, A163T counted along it
Assay [13] addresses 5-hydroxytryptamine receptor 3A (Mus musculus, UniProt P23979, W182F). Briefly: Agonist activity at mouse 5HT3A W183F receptor mutant expressed in Xenopus oocyte by two-electrode voltage patch method.
Assay [14] addresses 5-hydroxytryptamine receptor 3A (Mus musculus, UniProt P23979, Y152F). Briefly: Agonist activity at mouse 5HT3A Y153F receptor mutant expressed in Xenopus oocyte by two-electrode voltage patch method.

SMILES strings stand for the structures.

5-hydroxytryptamine receptor 3A (Mus musculus, UniProt P23979, I186A), sequence (P23979 24-489 I209A limits assumed): as the sequence (P23979 24-489 T186A limits assumed) above, with A163T, I186A counted along it
5-hydroxytryptamine receptor 3A (Mus musculus, UniProt P23979, H184Y), sequence (P23979 24-489 H185Y limits assumed): as the sequence (P23979 24-489 T186A limits assumed) above, with H162Y, A163T counted along it
5-hydroxytryptamine receptor 3A (Mus musculus, UniProt P23979, Y152F), sequence (P23979 24-489 Y153F limits assumed): as the sequence (P23979 24-489 T186A limits assumed) above, with Y130F, A163T counted along it
5-hydroxytryptamine receptor 3A (Mus musculus, UniProt P23979, L183V), sequence (P23979 24-489 L184V limits assumed): as the sequence (P23979 24-489 T186A limits assumed) above, with L161V, A163T counted along it
5-hydroxytryptamine receptor 3A (Mus musculus, UniProt P23979, I189V), sequence (P23979 24-489 I190V limits assumed): as the sequence (P23979 24-489 T186A limits assumed) above, with A163T, I167V counted along it
5-hydroxytryptamine receptor 3A (Mus musculus, UniProt P23979, H184F), sequence (P23979 24-489 H185F limits assumed): as the sequence (P23979 24-489 T186A limits assumed) above, with H162F, A163T counted along it
5-hydroxytryptamine receptor 3A (Mus musculus, UniProt P23979, W182F), sequence (P23979 24-489 W183F limits assumed): as the sequence (P23979 24-489 T186A limits assumed) above, with W160F, A163T counted along it

The EC50 is the concentration needed to bring the measured effect to its halfway point. A high value points to weaker potency. Consider `N=C(N)NC(=N)Nc1cccc(Cl)c1`, for which the EC50 in assay [1] was 5.1 µM; in [2] it was 52 µM; in [3], 1.7 µM; in assay [4], 5.4 µM; in assay [5] it was 2.3 µM; in assay [6], 27 µM. Moreover, the EC50 in assay [7] was 2.2 µM; in assay [8], 2 µM; in assay [9], 5.3 µM; in assay [10] it was 0.8 µM; in assay [11] it was 2.5 µM; in assay [12] it was 7.6 µM. Also, the concentration giving a half-maximal response (EC50) in assay [13] came out at 16 µM; in assay [14], 2.2 µM.
